Columns and labels:
Assay in all cases: radiometric filter-binding kinase assay, Kinase HotSpot
Details in all cases: compound 0.5 µM; ATP 10 µM
[1] = target: CSNK1E (human) (UniProt P49674)
[2] = target: BRSK2 (human) (UniProt Q8IWQ3)
[3] = target: PHKG2 (human) (UniProt P15735)
[4] = target: MERTK (human) (UniProt Q12866)
[5] = target: DDR2 (human) (UniProt Q16832)
[6] = target: MLTK (human) (UniProt Q9NYL2)
[7] = target: YES1 (human) (UniProt P07947)
[8] = target: EPHB4 (human) (UniProt P54760)
[9] = target: JAK2 JH1 JH2 (human) (UniProt O60674)
[10] = target: CSNK1D (human) (UniProt P48730)
[11] = target: PAK6 (human) (UniProt Q9NQU5)
[12] = target: FGFR3 (human) (UniProt P22607)
[13] = target: NEK3 (human) (UniProt P51956)
[14] = target: STK11 (human) (UniProt Q15831)
[15] = target: NLK (human) (UniProt Q9UBE8)
[16] = target: EPHA1 (human) (UniProt P21709)
[17] = target: HIPK1 (human) (UniProt Q86Z02)
[18] = target: NTRK3 (human) (UniProt Q16288)
[19] = target: PLK1 (human) (UniProt P53350)
[20] = target: SYK (human) (UniProt P43405)
[21] = target: MAP3K8 (human) (UniProt P41279)
[22] = target: PAK3 (human) (UniProt O75914)
[23] = target: PRKCD (human) (UniProt Q05655)
[24] = target: CSNK1G1 (human) (UniProt Q9HCP0)
[25] = target: PRKCE (human) (UniProt Q02156)
[26] = target: ROS1 (human) (UniProt P08922)
[27] = target: KIT (human) (UniProt P10721)
[28] = target: HIPK3 (human) (UniProt Q9H422)
[29] = target: CLK3 (human) (UniProt P49761)
[30] = target: MAPK1 (human) (UniProt P28482)
[31] = target: CSNK2A1 (human) (UniProt P68400)
[32] = target: PNCK (human) (UniProt Q6P2M8)
[33] = target: MAPKAPK2 (human) (UniProt P49137)
[34] = target: CAMK1G (human) (UniProt Q96NX5)
[35] = target: ERBB4 (human) (UniProt Q15303)
[36] = target: CDK6 CCND1 (human) (UniProt Q00534+P24385)
[37] = target: MST4 (human) (UniProt Q9P289)
[38] = target: FGFR4 (human) (UniProt P22455)
[39] = target: TAOK2 (human) (UniProt Q9UL54)
[40] = target: DYRK2 (human) (UniProt Q92630)
[41] = target: DSTYK (human) (UniProt Q6XUX3)
[42] = target: NEK11 (human) (UniProt Q8NG66)

STK11 (human), sequence (Q15831 whole entry, looked up): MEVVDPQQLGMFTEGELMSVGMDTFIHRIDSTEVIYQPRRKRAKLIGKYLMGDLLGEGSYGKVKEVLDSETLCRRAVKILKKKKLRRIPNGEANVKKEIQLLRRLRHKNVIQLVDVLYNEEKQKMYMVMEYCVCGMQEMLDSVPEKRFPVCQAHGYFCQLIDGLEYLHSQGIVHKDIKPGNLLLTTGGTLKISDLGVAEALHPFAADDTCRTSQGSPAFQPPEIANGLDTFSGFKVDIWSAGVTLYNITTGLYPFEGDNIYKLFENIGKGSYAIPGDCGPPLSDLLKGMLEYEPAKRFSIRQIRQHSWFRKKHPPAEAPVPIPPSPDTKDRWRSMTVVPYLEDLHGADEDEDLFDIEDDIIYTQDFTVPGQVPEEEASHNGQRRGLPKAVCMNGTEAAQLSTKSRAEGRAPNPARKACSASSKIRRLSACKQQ
NEK3 (human), sequence (P51956 whole entry, looked up): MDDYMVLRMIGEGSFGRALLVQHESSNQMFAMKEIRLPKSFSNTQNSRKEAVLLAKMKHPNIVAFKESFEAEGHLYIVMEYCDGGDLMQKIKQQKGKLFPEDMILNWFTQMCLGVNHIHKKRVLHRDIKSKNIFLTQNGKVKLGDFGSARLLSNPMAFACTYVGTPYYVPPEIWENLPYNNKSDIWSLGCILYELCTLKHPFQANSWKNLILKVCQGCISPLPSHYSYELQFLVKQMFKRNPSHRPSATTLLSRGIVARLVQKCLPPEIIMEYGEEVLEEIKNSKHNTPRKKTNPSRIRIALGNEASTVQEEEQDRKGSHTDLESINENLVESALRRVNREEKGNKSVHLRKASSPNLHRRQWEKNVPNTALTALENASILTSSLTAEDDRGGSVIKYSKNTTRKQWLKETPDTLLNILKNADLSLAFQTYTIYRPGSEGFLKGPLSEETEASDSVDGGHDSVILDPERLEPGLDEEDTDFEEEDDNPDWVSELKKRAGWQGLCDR
EPHB4 (human), sequence (P54760 whole entry, looked up): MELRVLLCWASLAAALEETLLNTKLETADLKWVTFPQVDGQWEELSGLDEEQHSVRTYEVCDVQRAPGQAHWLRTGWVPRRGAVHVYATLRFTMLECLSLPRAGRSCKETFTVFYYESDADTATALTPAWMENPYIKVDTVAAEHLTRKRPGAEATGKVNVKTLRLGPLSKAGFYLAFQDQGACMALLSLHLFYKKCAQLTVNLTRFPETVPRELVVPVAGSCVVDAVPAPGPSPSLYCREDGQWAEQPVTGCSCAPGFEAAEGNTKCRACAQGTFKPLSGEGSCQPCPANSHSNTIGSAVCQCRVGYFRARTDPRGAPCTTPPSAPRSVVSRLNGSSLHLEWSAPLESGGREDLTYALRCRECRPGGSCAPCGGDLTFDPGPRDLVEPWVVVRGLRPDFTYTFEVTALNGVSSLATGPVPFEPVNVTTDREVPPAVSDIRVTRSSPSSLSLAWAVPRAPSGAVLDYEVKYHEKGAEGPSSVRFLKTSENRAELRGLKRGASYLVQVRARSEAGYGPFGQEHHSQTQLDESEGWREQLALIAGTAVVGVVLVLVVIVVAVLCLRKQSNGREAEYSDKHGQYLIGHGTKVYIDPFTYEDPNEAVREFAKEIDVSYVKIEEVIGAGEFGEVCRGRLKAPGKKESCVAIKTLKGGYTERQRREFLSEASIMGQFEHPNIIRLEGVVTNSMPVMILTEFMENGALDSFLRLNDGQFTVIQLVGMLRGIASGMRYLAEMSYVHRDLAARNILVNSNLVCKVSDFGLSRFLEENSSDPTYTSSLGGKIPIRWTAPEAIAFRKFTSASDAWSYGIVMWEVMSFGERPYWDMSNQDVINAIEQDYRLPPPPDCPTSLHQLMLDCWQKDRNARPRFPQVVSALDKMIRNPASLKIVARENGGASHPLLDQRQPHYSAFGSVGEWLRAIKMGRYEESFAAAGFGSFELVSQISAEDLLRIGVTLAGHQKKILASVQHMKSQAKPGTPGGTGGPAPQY
JAK2 JH1 JH2 (human), sequence (O60674 whole entry, looked up): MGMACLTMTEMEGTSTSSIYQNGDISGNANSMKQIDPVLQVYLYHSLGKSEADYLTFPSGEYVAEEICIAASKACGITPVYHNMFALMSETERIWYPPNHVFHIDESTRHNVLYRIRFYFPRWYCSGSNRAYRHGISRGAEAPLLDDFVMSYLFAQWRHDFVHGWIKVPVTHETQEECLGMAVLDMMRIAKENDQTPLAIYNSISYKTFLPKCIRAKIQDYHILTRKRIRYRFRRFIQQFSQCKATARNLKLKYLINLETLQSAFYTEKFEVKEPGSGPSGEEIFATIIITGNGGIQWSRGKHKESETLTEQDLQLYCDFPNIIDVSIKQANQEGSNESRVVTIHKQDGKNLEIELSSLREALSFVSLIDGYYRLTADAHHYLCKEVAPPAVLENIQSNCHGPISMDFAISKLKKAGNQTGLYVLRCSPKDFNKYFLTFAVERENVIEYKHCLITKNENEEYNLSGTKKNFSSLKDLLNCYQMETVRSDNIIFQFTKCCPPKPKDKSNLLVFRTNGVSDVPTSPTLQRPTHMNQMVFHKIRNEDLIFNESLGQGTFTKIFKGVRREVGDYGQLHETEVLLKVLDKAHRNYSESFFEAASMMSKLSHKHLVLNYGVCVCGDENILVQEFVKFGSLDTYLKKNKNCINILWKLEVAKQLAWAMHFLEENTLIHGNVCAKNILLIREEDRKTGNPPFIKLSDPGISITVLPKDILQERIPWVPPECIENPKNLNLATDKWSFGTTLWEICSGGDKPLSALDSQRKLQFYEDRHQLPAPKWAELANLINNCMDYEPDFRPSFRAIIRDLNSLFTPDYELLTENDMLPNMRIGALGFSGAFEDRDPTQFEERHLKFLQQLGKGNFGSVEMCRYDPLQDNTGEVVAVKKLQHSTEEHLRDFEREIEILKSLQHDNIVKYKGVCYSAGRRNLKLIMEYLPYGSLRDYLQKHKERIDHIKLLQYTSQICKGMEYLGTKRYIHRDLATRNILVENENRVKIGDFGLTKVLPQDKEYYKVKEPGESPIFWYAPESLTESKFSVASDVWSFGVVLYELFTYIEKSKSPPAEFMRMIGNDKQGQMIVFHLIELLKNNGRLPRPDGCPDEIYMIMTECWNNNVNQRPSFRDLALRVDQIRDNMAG
CSNK1G1 (human), sequence (Q9HCP0 whole entry, looked up): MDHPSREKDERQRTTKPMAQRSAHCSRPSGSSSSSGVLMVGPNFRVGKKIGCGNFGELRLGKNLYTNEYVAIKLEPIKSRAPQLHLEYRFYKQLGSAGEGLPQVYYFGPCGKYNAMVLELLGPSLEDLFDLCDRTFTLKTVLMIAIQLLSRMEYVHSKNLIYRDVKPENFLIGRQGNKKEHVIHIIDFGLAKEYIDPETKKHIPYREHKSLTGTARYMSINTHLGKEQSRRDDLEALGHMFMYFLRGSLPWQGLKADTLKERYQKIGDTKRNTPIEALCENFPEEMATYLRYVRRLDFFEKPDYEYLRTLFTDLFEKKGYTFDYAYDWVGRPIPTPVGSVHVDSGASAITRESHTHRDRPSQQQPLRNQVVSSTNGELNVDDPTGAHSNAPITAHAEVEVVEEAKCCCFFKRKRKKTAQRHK
FGFR4 (human), sequence (P22455 whole entry, looked up): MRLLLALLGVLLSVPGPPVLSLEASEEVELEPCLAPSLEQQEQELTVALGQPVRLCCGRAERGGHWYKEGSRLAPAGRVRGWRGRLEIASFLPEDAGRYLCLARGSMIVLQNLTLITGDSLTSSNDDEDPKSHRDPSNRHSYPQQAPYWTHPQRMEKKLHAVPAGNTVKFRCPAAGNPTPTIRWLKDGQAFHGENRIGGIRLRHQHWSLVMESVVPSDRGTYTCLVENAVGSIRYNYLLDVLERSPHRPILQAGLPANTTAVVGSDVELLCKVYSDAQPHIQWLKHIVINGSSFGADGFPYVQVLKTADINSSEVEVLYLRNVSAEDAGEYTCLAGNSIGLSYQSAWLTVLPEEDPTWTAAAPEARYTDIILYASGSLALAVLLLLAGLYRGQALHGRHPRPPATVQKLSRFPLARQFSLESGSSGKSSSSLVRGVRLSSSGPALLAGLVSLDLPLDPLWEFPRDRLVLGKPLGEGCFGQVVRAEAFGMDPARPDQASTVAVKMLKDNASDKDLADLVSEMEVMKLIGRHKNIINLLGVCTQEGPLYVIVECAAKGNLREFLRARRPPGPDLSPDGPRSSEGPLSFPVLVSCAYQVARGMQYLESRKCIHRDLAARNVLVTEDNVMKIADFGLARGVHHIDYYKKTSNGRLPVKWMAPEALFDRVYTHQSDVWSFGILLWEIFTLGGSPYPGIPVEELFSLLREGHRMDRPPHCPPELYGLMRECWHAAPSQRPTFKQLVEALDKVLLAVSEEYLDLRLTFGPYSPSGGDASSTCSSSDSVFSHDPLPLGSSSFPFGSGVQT
PNCK (human), sequence (Q6P2M8 whole entry, looked up): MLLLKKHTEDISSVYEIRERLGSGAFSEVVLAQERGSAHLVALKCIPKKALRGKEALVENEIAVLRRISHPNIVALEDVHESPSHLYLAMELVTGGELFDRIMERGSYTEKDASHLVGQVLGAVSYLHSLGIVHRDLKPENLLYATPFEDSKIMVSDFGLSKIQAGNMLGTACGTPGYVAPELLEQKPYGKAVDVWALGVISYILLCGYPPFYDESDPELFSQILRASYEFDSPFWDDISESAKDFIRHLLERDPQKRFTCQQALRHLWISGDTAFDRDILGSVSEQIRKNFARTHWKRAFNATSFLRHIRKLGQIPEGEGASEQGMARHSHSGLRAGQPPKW
MST4 (human), sequence (Q9P289 whole entry, looked up): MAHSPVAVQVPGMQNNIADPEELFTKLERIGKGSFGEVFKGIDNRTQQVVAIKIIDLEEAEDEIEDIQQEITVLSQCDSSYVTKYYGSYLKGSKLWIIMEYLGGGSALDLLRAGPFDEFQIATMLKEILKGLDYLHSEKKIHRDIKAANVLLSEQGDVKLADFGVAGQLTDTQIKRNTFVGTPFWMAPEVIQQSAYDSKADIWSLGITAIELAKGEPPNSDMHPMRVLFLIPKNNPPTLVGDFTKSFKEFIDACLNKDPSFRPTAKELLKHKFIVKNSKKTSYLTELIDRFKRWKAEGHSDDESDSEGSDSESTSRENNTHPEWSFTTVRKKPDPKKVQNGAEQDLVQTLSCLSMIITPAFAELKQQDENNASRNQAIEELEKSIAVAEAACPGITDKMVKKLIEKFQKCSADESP

CCOc1cc2ncnc(Nc3cccc(Br)c3)c2cc1OCC was tested, and the residual activity [1] was 93.8%, the residual activity [2] was 94% and the residual activity [3] was 101%. For the same compound, the residual activity [4] was 87.1%, the residual activity [5] was 100% and the residual activity [6] was 89.8%. The residual activity [7] was 43.2%, the residual activity [8] was 43% and the residual activity [9] was 99%. The residual activity [10] was 103%, the residual activity [11] was 119% and the residual activity [12] was 103%. For the same compound, the residual activity [13] was 100%, the residual activity [14] was 88% and the residual activity [15] was 95.9%. For the same compound, the residual activity [16] was 84.7%, the residual activity [17] was 104% and the residual activity [18] was 91.5%. It also gave a residual activity [19] of 93.6%, a residual activity [20] of 95.6% and a residual activity [21] of 106%. The residual activity [22] was 97.6%, the residual activity [23] was 100% and the residual activity [24] was 107%. The residual activity [25] was 94.5%, the residual activity [26] was 102% and the residual activity [27] was 74.4%. The residual activity [28] was 102%, the residual activity [29] was 85.3% and the residual activity [30] was 104%. For the same compound, the residual activity [31] was 95.9%, the residual activity [32] was 103% and the residual activity [33] was 101%. For the same compound, the residual activity [34] was 97.2%, the residual activity [35] was 34.3% and the residual activity [36] was 102%. It also gave a residual activity [37] of 94.9%, a residual activity [38] of 87.1% and a residual activity [39] of 101%. It also gave a residual activity [40] of 88.8%, a residual activity [41] of 101% and a residual activity [42] of 103%.

For COc1cc2c(cc1OC)-c1[nH]nc(Nc3cccc(F)c3)c1C2, the residual activity [1] was 94.3%, the residual activity [2] was 92.1% and the residual activity [3] was 121%. It also gave a residual activity [4] of 78.7%, a residual activity [5] of 110% and a residual activity [6] of 44.7%. The residual activity [7] was 61.3%, the residual activity [8] was 95.3% and the residual activity [9] was 107%. It also gave a residual activity [10] of 99.9%, a residual activity [11] of 84.8% and a residual activity [12] of 99.6%. The residual activity [13] was 97.1%, the residual activity [14] was 104% and the residual activity [15] was 74.1%. For the same compound, the residual activity [16] was 102%, the residual activity [17] was 96.4% and the residual activity [18] was 72.6%. For the same compound, the residual activity [19] was 102%, the residual activity [20] was 103% and the residual activity [21] was 99.9%. The residual activity [22] was 93.1%, the residual activity [23] was 111% and the residual activity [24] was 77.8%. It also gave a residual activity [25] of 87.9%, a residual activity [26] of 97.5% and a residual activity [27] of 27.9%. For the same compound, the residual activity [28] was 100%, the residual activity [29] was 96.5% and the residual activity [30] was 85.1%. It also gave a residual activity [31] of 96.6%, a residual activity [32] of 98% and a residual activity [33] of 97.2%. The residual activity [34] was 101%, the residual activity [35] was 96.5% and the residual activity [36] was 92.9%. It also gave a residual activity [37] of 97%, a residual activity [38] of 91.6% and a residual activity [39] of 97.1%. It also gave a residual activity [40] of 95.3%, a residual activity [41] of 93.3% and a residual activity [42] of 98.9%.

COc1cc2ncnc(Nc3ccc(O)c(Br)c3)c2cc1OC showed a residual activity [1] of 85.1%, a residual activity [2] of 80.1% and a residual activity [3] of 98%. For the same compound, the residual activity [4] was 87.7%, the residual activity [5] was 119% and the residual activity [6] was 89%. The residual activity [7] was 34.6%, the residual activity [8] was 52.2% and the residual activity [9] was 95%. For the same compound, the residual activity [10] was 89.7%, the residual activity [11] was 92.8% and the residual activity [12] was 98.8%. It also gave a residual activity [13] of 88.4%, a residual activity [14] of 103% and a residual activity [15] of 76.2%. It also gave a residual activity [16] of 80.4%, a residual activity [17] of 104% and a residual activity [18] of 83.4%. It also gave a residual activity [19] of 98.8%, a residual activity [20] of 86.7% and a residual activity [21] of 97.6%. The residual activity [22] was 94.2%, the residual activity [23] was 97.3% and the residual activity [24] was 92.4%. It also gave a residual activity [25] of 93.2%, a residual activity [26] of 65.7% and a residual activity [27] of 97.3%. It also gave a residual activity [28] of 67.7%, a residual activity [29] of 54.1% and a residual activity [30] of 102%. The residual activity [31] was 93.7%, the residual activity [32] was 103% and the residual activity [33] was 97.7%. It also gave a residual activity [34] of 103%, a residual activity [35] of 29.1% and a residual activity [36] of 95.4%. It also gave a residual activity [37] of 90.2%, a residual activity [38] of 103% and a residual activity [39] of 95.8%. The residual activity [40] was 60%, the residual activity [41] was 106% and the residual activity [42] was 103%.

Compound O=C1NC(=O)c2c1c1c3ccccc3[nH]c1c1[nH]c3cc(Br)ccc3c21 has a residual activity [1] of 82.2%, a residual activity [2] of 35.6% and a residual activity [3] of 94.8%. It also gave a residual activity [4] of 69.1%, a residual activity [5] of 91.8% and a residual activity [6] of 88.8%. It also gave a residual activity [7] of 88.4%, a residual activity [8] of 86.5% and a residual activity [9] of 95.8%. The residual activity [10] was 96.9%, the residual activity [11] was 97.7% and the residual activity [12] was 86.2%. It also gave a residual activity [13] of 88.3%, a residual activity [14] of 90.2% and a residual activity [15] of 81.7%. It also gave a residual activity [16] of 98.1%, a residual activity [17] of 98.2% and a residual activity [18] of 28.8%. For the same compound, the residual activity [19] was 91.2%, the residual activity [20] was 58.3% and the residual activity [21] was 89%. For the same compound, the residual activity [22] was 97.7%, the residual activity [23] was 99.1% and the residual activity [24] was 96.2%. The residual activity [25] was 95.7%, the residual activity [26] was 74.4% and the residual activity [27] was 128%. For the same compound, the residual activity [28] was 93.3%, the residual activity [29] was 93.4% and the residual activity [30] was 92.4%. The residual activity [31] was 93.1%, the residual activity [32] was 99.4% and the residual activity [33] was 101%. The residual activity [34] was 94.5%, the residual activity [35] was 101% and the residual activity [36] was 12.2%. The residual activity [37] was 80.5%, the residual activity [38] was 90.6% and the residual activity [39] was 94.1%. The residual activity [40] was 70.5%, the residual activity [41] was 65.6% and the residual activity [42] was 109%.

— the kinase profiling compilation of Christmann-Franck et al. (2016)
